The values below come from patent US20190381014A1, “ISOQUINOLINONE COMPOUNDS AND USE THEREOF IN PREPARATION OF ANTIVIRAL DRUGS” (Ginkgo Pharma Co., Ltd., priority 2016, published 2019).

One data set deals with HBsAg. As to the kind of experiment: HBsAg inhibition in HepG2.2.15 culture supernatant (ELISA). It counts as cell-based, HBV. The note with it: Hepatitis B virus, HepG2.2.15, 192 h, read-out: Activity in HBsAg inhibition, EC50. As for the experimental part:
Test method: HepG2.2.15 cell line was seeded into 96-well plates at 1.5×10^4 cells/well. On the following day, the cells were treated with a three-fold serial dilution series of the compounds at eight concentration points, and 2 duplicate wells were determined in parallel. The final DMSO concentration in the culture solution was 0.5%. On the fifth day, the culture solution was replaced with fresh solution containing the compounds. On the eighth day, the culture supernatant was collected and the HBsAg in the culture supernatant was detected by ELISA. The percent inhibition was calculated with respect to the blank control.

Data set [1] is described as follows: Rat PK study (single IV and PO dose, plasma LC-MS/MS). It counts as in vivo, S-D rats. The note with it: for F / AUC(0-t) / clearance / half-life / Vd / Cmax / Tmax: S-D rats; for F: PO 10 mg/kg vs IV 2 mg/kg; for AUC(0-t) / clearance / half-life / Vd / Cmax / Tmax: Sprague-Dawley (S-D), rat, plasma; for Vd: read-out: Vdss. The procedure:
Preparation of intravenous injection formulation: accurately weighing 2-3 mg of a sample, adding appropriate amount of N,N-dimethylacetamide (DMA), vortex oscillating to completely dissolve the solid matter; adding an appropriate volume of 30% Solutol HS-15 aqueous solution, vortex oscillating and then adding saline, so that DMA: 30% Solutol HS-15:saline=20:20:60 (v/v/v), vortex oscillating the liquid to mix the liquid evenly, and filtering to obtain a pharmaceutical preparation of a concentration of 0.4 mg·mL^−1.
Preparation of oral formulation: accurately weighing 10 mg of a sample, adding an appropriate volume of 0.5% CMC-Na aqueous solution, vortex oscillating and ultrasounding to mix the liquid evenly to obtain a pharmaceutical preparation of a concentration of 1 mg·mL^−1.
The formulations were freshly prepared on the day of administration, and samples were reserved and taken for the determination of the actual concentration.
S-D rats of Group A were given a single intravenous injection (IV) of 2 mg·kg^−1, respectively; S-D rats of Group B were given a single gavage administration (PO) of 10 mg·kg^−1, respectively. Approximately 0.15 mL of blood sample will was collected via jugular vein into EDTA-K2 tubes at the designated time points of pre-dose, and 5 min (IV only), 15 min, 30 min, 1 h, 2 h, 4 h, 8 h, 12 h and 24 h post dose. All of the whole blood samples were centrifuged for 10 min (at 5500 rpm) to obtain plasma samples, which were stored at a refrigerator below −30˜−10° C. Concentrations of compounds in the plasma samples were analyzed using a LC-MS/MS method. The pharmacokinetic parameters were calculated using non-compartment model in Pharsight Phoenix 7.0 software. See Tables 2a and 2b for the results.

Take `COc1cc2c(cc1OCC1CC(OC)C1)C[C@@H](C(C)C)n1cc(C(=O)O)c(=O)cc1-2` (stereo partly drawn) [Compound I-8, (S)-6-isopropyl-10-methoxy-9-((3-methoxycyclobutyl)methoxy)-2-oxo-6,7-dihydro-2H-pyrido[2,1-α]isoquinoline-3-carboxylic acid]: the EC50 in the data set with HBsAg turned out to be 1.54 nM. The compound also had a F in data set [1] of 27.1%. Besides, in data set [1] (IV 2 mg/kg), the AUC(0-t) stood at 2150 ng·h/mL, the clearance amounted to 15.7 mL/min/kg, the half-life is 53.4 min and the Vd was found to be 1.05 L/kg. For the same compound, in data set [1] (PO 10 mg/kg), the area under the curve AUC(0-t) was determined as 3030 ng·h/mL, the Cmax turned out to be 739 ng/mL, the Tmax worked out at 55.2 min and the half-life was 78 min. Also, the “PK properties (overall judgement)” value in data set [1] (combining PK data of IV and PO) is on record as “good PK properties”.
Turning to `COc1cc2c(cc1OCCCC(C)=O)C[C@@H](C(C)C)n1cc(C(=O)O)c(=O)cc1-2` [Compound I-9, (S)-6-isopropyl-10-methoxy-2-oxo-9-((4-oxopentyl)oxy)-6,7-dihydro-2H-pyrido[2,1-α]isoquinoline-3-carboxylic acid], in the data set with HBsAg, the EC50 was found to be 3.26 nM. In data set [1], this compound registered an F of 4.3%. For the same compound, in data set [1] (IV 2 mg/kg), the AUC(0-t) stood at 504 ng·h/mL, the clearance came out at 65.9 mL/min/kg, the half-life is 17.4 min and the Vd amounted to 0.942 L/kg. In addition, in data set [1] (PO 10 mg/kg), the AUC(0-t) came to 105 ng·h/mL, the highest level (Cmax) was 79.9 ng/mL, the time to peak (Tmax) was 19.8 min and the half-life was 108 min.
In the case of `COc1cc2c(cc1OC1CCCC1)C[C@@H](C(C)C)n1cc(C(=O)O)c(=O)cc1-2` [Compound I-10, (S)-9-(cyclopentyloxy)-6-isopropyl-10-methoxy-2-oxo-6,7-dihydro-2H-pyrido[2,1-α]isoquinoline-3-carboxylic acid], in the data set with HBsAg, the EC50 was found to be 3.01 nM. This compound also registered a F in data set [1] of 11.7%. For the same compound, in data set [1] (IV 2 mg/kg), the AUC(0-t) was found to be 1490 ng·h/mL, the clearance was found to be 22.7 mL/min/kg, the half-life is 52.8 min and the Vd is 1.41 L/kg. In addition, in data set [1] (PO 10 mg/kg), the AUC(0-t) was 869 ng·h/mL, the Cmax was determined as 265 ng/mL, the Tmax stood at 60 min and the half-life was 78 min.
On to `COc1cc2c(cc1C#CC1CC1)C[C@@H](C(C)C)n1cc(C(=O)O)c(=O)cc1-2` [Compound I-11, (S)-9-(cyclopropylethynyl)-6-isopropyl-10-methoxy-2-oxo-6,7-dihydro-2H-pyrido[2,1-α] isoquinoline-3-carboxylic acid], for which the EC50 with HBsAg stood at 2.57 nM. In addition, in data set [1], the F came to 11.5%. In data set [1] (IV 2 mg/kg), the area under the curve AUC(0-t) worked out at 946 ng·h/mL, the clearance is 35.9 mL/min/kg, the half-life was 34.8 min and the Vd is 1.37 L/kg. For the same compound, in data set [1] (PO 10 mg/kg), the area under the curve AUC(0-t) amounted to 461 ng·h/mL, the Cmax was determined as 119 ng/mL, the Tmax is 108 min and the half-life was 192 min.
